Measurements as given in EP0054589B1, “Organic phosphoric acid ester derivatives, a process for preparing the same and insecticidal, miticidal or nematocidal compositions containing the same” (priority 1980, dated 1982).
Read-outs that look alike come from different tables or passages of the source.

Key:
rice stem borer = experiment: Insecticidal effect on rice stem borer, 3rd-instar larvae (rice seedling dip); assay type: in vivo, Chilo suppressalis; conditions: after 72 hours, 25°C
Experimental: (§1) (A) A wettable powder prepared as described in Formulation Example 5 was diluted with water to a predetermined concentration. Rice seedlings were dipped into the dilute solution and placed in a 60 ml volume cup made of vinyl chloride resin, and 10 3rd-instar larvae of rice stem borer were put in each cup. The cups were capped and maintained at 25°C.
as §1, with “(B) A” for “(A) A”, “Example 7” for “Example 5”

tobacco cutworm [1] = experiment: Insecticidal effect on tobacco cutworm (cabbage leaf dip); assay type: in vivo, Prodenia litura; conditions: after 48 hours, 25°C
Experimental: (§2) (A) An emulsifiable concentrate prepared as described in Formulation Example 1 was diluted with water to a predetermined concentration and then cabbage leaves were dipped into the dilute solution and dried in air and placed in a 60 ml volume cup made of vinyl chloride resin. 3rd-instar larvae of tobacco cutworm were put in each cup and maintained at 25°C. After 48 hours, percent mortality was assessed. The test was replicated 3 times for each compound using 30 insects in each test.
as §2, with “(B)” for “(A)”, “3” for “1”

diamond back moth = experiment: Insecticidal effect on diamond-back moth (cabbage leaf dip); assay type: in vivo, Plutella xylostella; conditions: after 72 hours, 25°C
Experimental: (§3) (A) An emulsifiable concentrate prepared as described in Formulation Example 1 was diluted with water to a predetermined concentration and leaves of a cabbage were dipped into the dilute emulsion for 10 seconds followed by drying in air, and charged in a 60 ml volume cup made of vinyl chloride resin. Then, thirty 3rd-instar larvae of diamond back moth were put in each cup, and the cups were kept at 25°C. After 72 hours, percent mortality was assessed and the test was replicated 3 times for each treatment.
as §3, with “(B) An” for “(A) An”, “Example 4” for “Example 1”

carmine mites = experiment: Miticidal effect on carmine mite (sprayed kidney bean seedling); assay type: in vivo, Tetranychus cinnabarius; conditions: 500 ppm
Experimental: An emulsifiable concentrate prepared as described in Formulation Example 1 and diluted to a predetermined concentration was sprayed using a spray-gun on a seedling of a kidney bean placed in a pot of 12 cm in diameter to which plant carmine mites were parasitic. After drying in air, seedlings were kept in a green house, and the number of living insects was recorded on the 7th, 14th, 21st and 28th day from the day of application to determine the control effects. Three pots were used for each treatment. The control effect was assessed by the following formula: [formula] • wherein Σ indicates sum and Cb, Tb, Cai and Tai have the following meanings. • Cb: Number of living mites in non-treated sample before application. • Tb: Number of living mites in treated sample before application. • Cai: Number of living mites in non-treated sample 7th, 14th, 21 st or 28th day from the application. • Tai: Number of living mites in treated sample 7th, 14th, 21st or 28th day from the application.

[2] = system: carmine mites resistant to Kelthane; experiment: Miticidal effect on carmine mite resistant to Kelthane (sprayed egg plant seedling); assay type: in vivo, Tetranychus cinnabarius; conditions: Table 13, 500 ppm
Experimental: (§4) (A) An emulsifiable concentrate prepared as described in Formulation Example 1 and diluted to a predetermined concentration was sprayed using a spray-gun on a seedling of an egg plant placed in a pot of 12 cm in diametre to which plant carmine mites resistant to Kelthane were parasitic. After drying in air, seedlings were kept in a green house, and the number of living insects was recorded on the 7th, 14th, 21 st and 28th day from the day of application to determine the control effects. Three pots were used for each treatment. The control effect was assessed by the formula described in TEST EXAMPLE 7 above. Further, phytotoxicity was observed visually on the 7th day after the application.
as §4, with “(B) An” for “(A) An”, “Example 3” for “Example 1”, “in diameter” for “in diametre”, “in Test” for “in TEST”

Apple = experiment: Phytotoxicity on various crops; assay type: in vivo; parameters: key: Symbol — indicates that no toxicity was observed; conditions: 500 ppm sprayed; checked visually after 10 days
Experimental: (§5) An emulsifiable concentrate prepared as described in Formulation Example 2 was diluted with water to a concentration of 500 ppm based on the effective ingredient and sprayed sufficiently using a spray-gun onto various test plants. The plants were kept in a green house. After 10 days from the application phytotoxicity was checked visually. The test was replicated 3 times for each compound.

Beet = experiment: Phytotoxicity on various crops; assay type: in vivo; parameters: key: Symbol — indicates that no toxicity was observed; conditions: 500 ppm sprayed; checked visually after 10 days
Experimental: as §5

Cabbage = experiment: Phytotoxicity on various crops; assay type: in vivo; parameters: key: Symbol — indicates that no toxicity was observed; conditions: 500 ppm sprayed; checked visually after 10 days
Experimental: as §5

Cotton = experiment: Phytotoxicity on various crops; assay type: in vivo; parameters: key: Symbol — indicates that no toxicity was observed; conditions: 500 ppm sprayed; checked visually after 10 days
Experimental: as §5

Cucumber = experiment: Phytotoxicity on various crops; assay type: in vivo; parameters: key: Symbol — indicates that no toxicity was observed; conditions: 500 ppm sprayed; checked visually after 10 days
Experimental: as §5

Green Pepper = experiment: Phytotoxicity on various crops; assay type: in vivo; parameters: key: Symbol — indicates that no toxicity was observed; conditions: 500 ppm sprayed; checked visually after 10 days
Experimental: as §5

Kidney Bean = experiment: Phytotoxicity on various crops; assay type: in vivo; parameters: key: Symbol — indicates that no toxicity was observed; conditions: 500 ppm sprayed; checked visually after 10 days
Experimental: as §5

Rice = experiment: Phytotoxicity on various crops; assay type: in vivo; parameters: key: Symbol — indicates that no toxicity was observed; conditions: 500 ppm sprayed; checked visually after 10 days
Experimental: as §5

Tea = experiment: Phytotoxicity on various crops; assay type: in vivo; parameters: key: Symbol — indicates that no toxicity was observed; conditions: 500 ppm sprayed; checked visually after 10 days
Experimental: as §5

Tomato = experiment: Phytotoxicity on various crops; assay type: in vivo; parameters: key: Symbol — indicates that no toxicity was observed; conditions: 500 ppm sprayed; checked visually after 10 days
Experimental: as §5

egg plant = experiment: Phytotoxicity on various crops; assay type: in vivo; parameters: key: Symbol — indicates that no toxicity was observed; conditions: 500 ppm sprayed; checked visually after 10 days
Experimental: as §5

apple leaf miner = experiment: Insecticidal effect on apple leaf miner (sprayed apple seedling); assay type: in vivo, Lithocolletis ringoniella; conditions: for mortality at 500 ppm: Phyllonorycter ringoniella, 336 h
Experimental: (§6) (A) A dilute water suspension of a wettable powder prepared as described in Formulation Example 5 was sufficiently sprayed using a spray-gun on a seedling of an apple tree planted in a bisque flower pot to which plant larvae of apple leaf miner just after hatching were parasitic. Thereafter the pots were placed in a green house. Fourteen days after the spraying, bores made by larvae were broken and percent mortality was assessed for all the leaves of each seedling. Three pots were used for each treatment.
as §6, with “(B)” for “(A)”, “7” for “5”

tobacco cutworm [3] = experiment: Long-lasting insecticidal effect on tobacco cutworm (sprayed cabbage plantlet); assay type: in vivo, Prodenia litura; conditions: concentration 500 (unit not given), mortality after 48 hours; for Percent Mortality After Application 3rd Day: leaves cut on 3rd day
Experimental: (§7) (A) An emulsifiable concentrate prepared as described in Formulation Example 2 was diluted with water to a predetermined concentration and sprayed onto a cabbage plantlet in a flower pot of 15 cm in diameter using a spray-gun sufficiently and the tests plants were placed in a green house. The leaves of the plants were cut off on the 3rd, 5th, 7th, 10th and 15th day and placed in a 60 ml volume cup and 3rd-instar larvae of tobacco cutworm were put in each cup. The cups were kept in an incubator (25°C). After 48 hours, percent mortality was assessed. The tests was replicated 3 times for each compound using 30 insects in each test.
as §7, with “(B) An” for “(A) An”, “Example 3” for “Example 2”, “and 1 5th” for “and 15th”

[4] = Table 7, 100 ppm, emulsifiable concentrate as Formulation Example 1
[5] = egg plant seedling, Formulation Example 1
[6] = Table 4, 100 ppm, emulsifiable concentrate as Formulation Example 3
[7] = Table 8, 100 ppm, emulsifiable concentrate as Formulation Example 4

CCCCSP(=O)(OCC)Oc1ccc2c(c1)OC(C)=CC2(C)C (stereo not drawn) [Compound No. 5]
Percent Mortality (%) (rice stem borer; Table 1, 500 ppm, wettable powder as Formulation Example 5): 100%
Percent Mortality (%) (tobacco cutworm [1]; Table 3, 500 ppm, emulsifiable concentrate as Formulation Example 1): 100%
Percent Mortality (%) (diamond back moth; [4]): 100%
Control Effect (%) (carmine mites): 91.2%
Number of Living Mites after Application 7th Day (carmine mites): 0
Number of Living Mites after Application 14th Day (carmine mites): 0
Number of Living Mites after Application 21st Day (carmine mites): 16
Number of Living Mites after Application 28th Day (carmine mites): 38
Number of Living Mites after Application 7th Day [2, 5]: 0
Number of Living Mites after Application 14th Day [2, 5]: 0
Number of Living Mites after Application 21st Day [2, 5]: 9
Number of Living Mites after Application 28th Day [2, 5]: 29
Control Effect (%) ([2]; from mite counts on 7th, 14th, 21st and 28th day): 97.4%
Phytotoxicity: Apple (Apple): —
Phytotoxicity: Beet (Beet): —
Phytotoxicity: Cabbage (Cabbage): —
Phytotoxicity: Cotton (Cotton): —
Phytotoxicity: Cucumber (Cucumber): —
Phytotoxicity: Green Pepper (Green Pepper): —
Phytotoxicity: Kidney Bean (Kidney Bean): —
Phytotoxicity: Rice (Rice): —
Phytotoxicity: Tea (Tea): —
Phytotoxicity: Tomato (Tomato): —
Phytotoxicity: Egg Plant (egg plant): —

CCCSP(=S)(OCC)Oc1cccc2c1C(C)=CC(C)(C)O2 (stereo not drawn) [Compound No. 26]
Percent Mortality (%) (rice stem borer; Table 2, 100 ppm, wettable powder as Formulation Example 7): 100%
Percent Mortality (%) (tobacco cutworm [1]; [6]): 100%
Percent Mortality (%) (diamond back moth; [7]): 96.7%
Phytotoxicity: Apple (Apple): —
Phytotoxicity: Beet (Beet): —
Phytotoxicity: Cabbage (Cabbage): —
Phytotoxicity: Cotton (Cotton): —
Phytotoxicity: Cucumber (Cucumber): —
Phytotoxicity: Green Pepper (Green Pepper): —
Phytotoxicity: Kidney Bean (Kidney Bean): —
Phytotoxicity: Rice (Rice): —
Phytotoxicity: Tea (Tea): —
Phytotoxicity: Tomato (Tomato): —
Phytotoxicity: Egg Plant (egg plant): —

COP(=O)(OC)OC=C(Cl)Cl [DDVP, dimethyl 2,2-dichlorovinyl dimethyl phosphate, reference compound]
Percent Mortality (%) (tobacco cutworm [1]; [6]): 46.7%
Percent Mortality (%) (diamond back moth; [4]): 23.3%
Percent Mortality (%) (diamond back moth; Table 7, 500 ppm): 76.7%
Percent Mortality (%) (diamond back moth; [7]): 6.7%
Percent Mortality (%) (diamond back moth; Table 8, 500 ppm): 83.3%

CCOP(=S)(OCC)Oc1nc(Cl)c(Cl)cc1Cl [Dursban, 0,0-diethyl 0-(3,5,6-trichloro-2-pyridyl)phosphorothioate, reference compound]
mortality at 500 ppm (apple leaf miner; read-out: Percent Morality (%)): 29.4%

CCOC(=O)C(SP(=S)(OC)OC)c1ccccc1 (stereo not drawn) [Elsan, S-(α-ethoxy-carbonyl benzyl O,O-dimethyl phosphorodithioate, reference compound]
Percent Morality (%) (apple leaf miner; Table 10, 500 ppm, fourteen days after spraying, wettable powder as Formulation Example 5, 20160 min): 13.2%

COP1(=S)OCc2ccccc2O1 (stereo not drawn) [Salithion, 2-methoxy-4H-benzo-1,3,2-dioxaphosphorin 2-sulphide, reference compound]
Percent Mortality After Application 3rd Day (tobacco cutworm [3]; Table 5): 20%
Percent Mortality After Application 5th Day (tobacco cutworm [3]; Table 5, leaves cut on 5th day): 0%
Percent Mortality After Application 7th Day (tobacco cutworm [3]; Table 5, leaves cut on 7th day): 0%
Percent Mortality After Application 10th Day (tobacco cutworm [3]; Table 5, leaves cut on 10th day): 0%
Percent Mortality After Application 15th Day (tobacco cutworm [3]; Table 5, leaves cut on 15th day): 0%
Percent Mortality After Application 3rd Day (tobacco cutworm [3]; Table 6): 0%
Percent Mortality After Application Immediately after Application (tobacco cutworm [3]; Table 6): 100%
mortality at 500 ppm (apple leaf miner; Table 10, 500 ppm, fourteen days after spraying, wettable powder as Formulation Example 5, read-out: Percent Morality (%)): 95%

COc1nn(CSP(=S)(OC)OC)c(=O)s1 [Supracide, O,O-dimethyl-S-[5-methoxy-1,3,4-thiadiazol-2(3H)-onyl(3)-methyl]dithiophosphate, reference compound]
mortality at 500 ppm (apple leaf miner; Table 11, 500 ppm, fourteen days after spraying, wettable powder as Formulation Example 7, read-out: Percent Mortality (%)): 72%
